Test results as given in ChEMBL document CHEMBL2074513, “Role of blood-brain barrier P-glycoprotein in limiting brain accumulation and sedative side-effects of asimadoline, a peripherally acting analgaesic drug” (Br J Pharmacol, 1999).

Columns and labels:
[1] = biological target: ATP-dependent translocase ABCB1 (Mus musculus, UniProt P21447); experiment: TP_TRANSPORTER: transepithelial transport (basal to apical) in mdr1a-expressing LLC-PK1 cell; assay type: functional, cell-based; details: pig
[2] = biological target: P-glycoprotein 1 and 3 (MDR1a/MDR1b) (Mus musculus, UniProt P21447+P06795); experiment: TP_TRANSPORTER: increase in brain concentration in mdr1a/1b(-/-) mouse; assay type: functional, organism-based; details: in vivo
[3] = biological target: ATP-dependent translocase ABCB1 (Homo sapiens, UniProt P08183); experiment: TP_TRANSPORTER: transepithelial transport (basal to apical) in MDR1-expressing LLC-PK1 cells; assay type: functional, cell-based; details: pig

Measured: Activity

ATP-dependent translocase ABCB1 (Mus musculus, UniProt P21447), sequence (P21447 whole entry): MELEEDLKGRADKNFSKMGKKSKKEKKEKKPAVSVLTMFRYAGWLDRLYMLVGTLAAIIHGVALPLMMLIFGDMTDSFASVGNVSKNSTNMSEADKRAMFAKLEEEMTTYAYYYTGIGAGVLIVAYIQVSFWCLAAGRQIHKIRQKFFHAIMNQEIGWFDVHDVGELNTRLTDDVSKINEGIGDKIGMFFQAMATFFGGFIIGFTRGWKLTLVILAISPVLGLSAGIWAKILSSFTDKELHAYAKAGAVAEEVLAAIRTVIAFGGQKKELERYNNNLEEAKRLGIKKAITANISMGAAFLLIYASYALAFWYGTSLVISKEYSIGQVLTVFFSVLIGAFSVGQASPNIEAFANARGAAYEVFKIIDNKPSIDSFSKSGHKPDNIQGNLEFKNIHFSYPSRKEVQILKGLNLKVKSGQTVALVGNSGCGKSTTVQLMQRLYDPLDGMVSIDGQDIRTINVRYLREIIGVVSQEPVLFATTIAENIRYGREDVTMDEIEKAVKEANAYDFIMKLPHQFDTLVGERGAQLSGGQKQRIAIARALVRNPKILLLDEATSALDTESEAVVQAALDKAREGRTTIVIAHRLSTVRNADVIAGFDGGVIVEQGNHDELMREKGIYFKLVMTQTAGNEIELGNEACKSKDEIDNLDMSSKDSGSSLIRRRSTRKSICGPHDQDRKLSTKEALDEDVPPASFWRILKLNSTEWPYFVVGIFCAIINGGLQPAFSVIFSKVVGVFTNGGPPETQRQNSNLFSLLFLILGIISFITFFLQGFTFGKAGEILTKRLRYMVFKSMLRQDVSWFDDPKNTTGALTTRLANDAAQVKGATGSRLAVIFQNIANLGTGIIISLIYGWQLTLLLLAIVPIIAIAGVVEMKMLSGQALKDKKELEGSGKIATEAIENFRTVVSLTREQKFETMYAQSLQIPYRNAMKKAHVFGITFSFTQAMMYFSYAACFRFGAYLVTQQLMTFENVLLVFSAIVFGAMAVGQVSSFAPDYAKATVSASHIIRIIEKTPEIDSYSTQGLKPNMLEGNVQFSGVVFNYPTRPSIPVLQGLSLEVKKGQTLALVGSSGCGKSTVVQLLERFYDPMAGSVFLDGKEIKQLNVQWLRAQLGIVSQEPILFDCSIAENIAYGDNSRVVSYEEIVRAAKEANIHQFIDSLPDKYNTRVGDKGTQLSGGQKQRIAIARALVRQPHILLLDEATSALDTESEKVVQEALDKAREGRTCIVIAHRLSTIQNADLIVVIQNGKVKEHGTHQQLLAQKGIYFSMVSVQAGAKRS
ATP-dependent translocase ABCB1 (Homo sapiens, UniProt P08183), sequence (P08183 whole entry): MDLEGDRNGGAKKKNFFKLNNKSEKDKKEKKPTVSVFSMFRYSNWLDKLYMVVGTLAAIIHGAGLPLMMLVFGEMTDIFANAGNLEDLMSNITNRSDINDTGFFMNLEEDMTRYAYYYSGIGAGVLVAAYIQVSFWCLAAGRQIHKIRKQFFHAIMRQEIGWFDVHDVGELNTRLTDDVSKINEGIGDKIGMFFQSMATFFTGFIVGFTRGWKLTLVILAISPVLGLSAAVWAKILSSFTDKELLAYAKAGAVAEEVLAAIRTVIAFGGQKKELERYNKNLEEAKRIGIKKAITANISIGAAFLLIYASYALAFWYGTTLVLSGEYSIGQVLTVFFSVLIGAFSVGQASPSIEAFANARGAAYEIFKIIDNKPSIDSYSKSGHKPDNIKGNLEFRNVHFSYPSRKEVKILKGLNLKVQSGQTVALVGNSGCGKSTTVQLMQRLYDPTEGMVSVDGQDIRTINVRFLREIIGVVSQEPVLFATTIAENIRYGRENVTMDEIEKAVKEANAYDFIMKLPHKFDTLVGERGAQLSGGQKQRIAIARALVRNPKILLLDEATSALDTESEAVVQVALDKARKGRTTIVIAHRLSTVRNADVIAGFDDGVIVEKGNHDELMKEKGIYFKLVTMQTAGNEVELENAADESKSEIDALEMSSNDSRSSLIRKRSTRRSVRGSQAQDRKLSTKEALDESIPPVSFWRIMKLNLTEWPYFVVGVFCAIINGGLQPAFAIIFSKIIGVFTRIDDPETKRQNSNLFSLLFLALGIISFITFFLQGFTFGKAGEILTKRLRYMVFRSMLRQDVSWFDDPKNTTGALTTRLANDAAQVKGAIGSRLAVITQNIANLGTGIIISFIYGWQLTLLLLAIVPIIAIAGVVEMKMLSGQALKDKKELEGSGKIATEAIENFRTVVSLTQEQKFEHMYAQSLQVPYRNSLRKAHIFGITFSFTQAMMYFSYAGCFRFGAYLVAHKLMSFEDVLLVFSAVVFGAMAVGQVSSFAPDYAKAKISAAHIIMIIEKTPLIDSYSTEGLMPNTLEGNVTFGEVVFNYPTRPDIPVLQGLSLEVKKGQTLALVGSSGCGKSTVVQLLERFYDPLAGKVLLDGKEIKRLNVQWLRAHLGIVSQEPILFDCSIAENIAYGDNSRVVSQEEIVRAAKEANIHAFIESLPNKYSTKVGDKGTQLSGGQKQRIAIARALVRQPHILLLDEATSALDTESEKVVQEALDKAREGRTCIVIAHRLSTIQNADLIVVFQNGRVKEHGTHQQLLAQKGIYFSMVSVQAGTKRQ

CN(C(=O)C(c1ccccc1)c1ccccc1)[C@H](CN1CC[C@H](O)C1)c1ccccc1 [ASIMADOLINE]
substrate [+]: all assays above
